In ChEMBL document CHEMBL3885861, “Open TG-GATES”:

Organism: Rattus norvegicus
Experiment: Open TG-GATES - Regimen: Daily Repeat
Assay type: toxicity, organism-based, Sprague-Dawley
Design: regimen Daily Repeat, gender Male, age 6 weeks
Settings: in vivo, po, 500 mg/kg, route gavage, dose level High; for APTT / Bas / Eos / Fbg / Hb / Ht / Lym / MCH / MCHC / MCV / Mono / Neu / PT / Plat / RBC / Ret / WBC: tissue Blood; for KIDNEY_L / KIDNEY_R / KIDNEY_TOTAL: tissue Kidney; for LIVER: tissue Liver; for A/G / ALP / ALT / AST / BUN / CRE / Ca / Cl / DBIL / GLC / IP / K / LDH / Na / PL / RALB / TBIL / TC / TG / TP / gamma-GTP: tissue Plasma

CC(=O)Oc1cc(C(C)C)c(OCCN(C)C)cc1C [MOXISYLYTE]
TERMINAL_BW (72 h, time 3 day): 224 g
APTT (72 h, time 3 day): 20.8 s
Bas (72 h, time 3 day): 0%
Eos (72 h, time 3 day): 1%
Fbg (72 h, time 3 day): 325 mg/dL
Hb (72 h, time 3 day): 14.2 g/dL
Ht (72 h, time 3 day): 40.8%
Lym (72 h, time 3 day): 76%
MCH (72 h, time 3 day): 21.2 pg
MCHC (72 h, time 3 day): 34.8%
MCV (72 h, time 3 day): 61 fL
Mono (72 h, time 3 day): 2.8%
Neu (72 h, time 3 day): 20%
PT (72 h, time 3 day): 15.7 s
Plat (72 h, time 3 day): 118.1 x10_4/uL
RBC (72 h, time 3 day): 669.4 x10_4/ul
Ret (72 h, time 3 day): 6.3%
WBC (72 h, time 3 day): 95.6 x10_2/uL
KIDNEY_L (72 h, time 3 day): 1 g
KIDNEY_R (72 h, time 3 day): 1 g
KIDNEY_TOTAL (72 h, time 3 day): 2 g
LIVER (72 h, time 3 day): 10.7 g
A/G (72 h, time 3 day): 1.3
ALP (72 h, time 3 day): 1492.8 IU/L
ALT (72 h, time 3 day): 46.6 IU/L
AST (72 h, time 3 day): 77.6 IU/L
BUN (72 h, time 3 day): 17.6 mg/dL
CRE (72 h, time 3 day): 0.2 mg/dL
Ca (72 h, time 3 day): 10.9 mg/dL
Cl (72 h, time 3 day): 106.4 meq/L
DBIL (72 h, time 3 day): 0.004 mg/dL
GLC (72 h, time 3 day): 176.4 mg/dL
IP (72 h, time 3 day): 7.6 mg/dL
K (72 h, time 3 day): 4.4 meq/L
LDH (72 h, time 3 day): 244.2 IU/L
Na (72 h, time 3 day): 142.6 meq/L
PL (72 h, time 3 day): 177.6 mg/dL
RALB (72 h, time 3 day): 3.2 g/dL
TBIL (72 h, time 3 day): 0.012 mg/dL
TC (72 h, time 3 day): 92.2 mg/dL
TG (72 h, time 3 day): 118.6 mg/dL
TP (72 h, time 3 day): 5.8 g/dL
gamma-GTP (72 h, time 3 day): 1.2 IU/L
TERMINAL_BW ([…], time 7 day): 243.1 g
TERMINAL_BW ([…], time 14 day): 311.5 g
TERMINAL_BW ([…], time 28 day): 377.7 g
APTT ([…], time 7 day): 21.5 s
Bas ([…], time 7 day): 0%
Eos ([…], time 7 day): 0.8%
Fbg ([…], time 7 day): 317.8 mg/dL
Hb ([…], time 7 day): 13.6 g/dL
Ht ([…], time 7 day): 38.5%
Lym ([…], time 7 day): 76.6%
MCH ([…], time 7 day): 21 pg
MCHC ([…], time 7 day): 35.3%
MCV ([…], time 7 day): 59.4 fL
Mono ([…], time 7 day): 2.4%
Neu ([…], time 7 day): 19.6%
PT ([…], time 7 day): 15.4 s
Plat ([…], time 7 day): 118.7 x10_4/uL
RBC ([…], time 7 day): 649.6 x10_4/ul
Ret ([…], time 7 day): 4.8%
WBC ([…], time 7 day): 113.3 x10_2/uL
APTT ([…], time 14 day): 22.2 s
Bas ([…], time 14 day): 0%
Eos ([…], time 14 day): 1%
Fbg ([…], time 14 day): 314.8 mg/dL
Hb ([…], time 14 day): 14.6 g/dL
Ht ([…], time 14 day): 39.8%
Lym ([…], time 14 day): 74.4%
MCH ([…], time 14 day): 21.2 pg
MCHC ([…], time 14 day): 36.7%
MCV ([…], time 14 day): 57.9 fL
Mono ([…], time 14 day): 2.2%
Neu ([…], time 14 day): 21.6%
PT ([…], time 14 day): 15.8 s
Plat ([…], time 14 day): 122.7 x10_4/uL
RBC ([…], time 14 day): 688.2 x10_4/ul
Ret ([…], time 14 day): 5%
WBC ([…], time 14 day): 116.2 x10_2/uL
APTT ([…], time 28 day): 21.9 s
Bas ([…], time 28 day): 0%
Eos ([…], time 28 day): 1.2%
Fbg ([…], time 28 day): 311 mg/dL
Hb ([…], time 28 day): 15 g/dL
Ht ([…], time 28 day): 42.8%
Lym ([…], time 28 day): 79.2%
MCH ([…], time 28 day): 18.7 pg
MCHC ([…], time 28 day): 35.1%
MCV ([…], time 28 day): 53.3 fL
Mono ([…], time 28 day): 1.6%
Neu ([…], time 28 day): 17.4%
PT ([…], time 28 day): 15.3 s
Plat ([…], time 28 day): 105.2 x10_4/uL
RBC ([…], time 28 day): 802.6 x10_4/ul
Ret ([…], time 28 day): 2.9%
WBC ([…], time 28 day): 118.3 x10_2/uL
KIDNEY_L ([…], time 7 day): 1.1 g
KIDNEY_R ([…], time 7 day): 1.1 g
KIDNEY_TOTAL ([…], time 7 day): 2.1 g
KIDNEY_L ([…], time 14 day): 1.2 g
KIDNEY_R ([…], time 14 day): 1.3 g
KIDNEY_TOTAL ([…], time 14 day): 2.5 g
KIDNEY_L ([…], time 28 day): 1.4 g
KIDNEY_R ([…], time 28 day): 1.4 g
KIDNEY_TOTAL ([…], time 28 day): 2.8 g
LIVER ([…], time 7 day): 11.2 g
LIVER ([…], time 14 day): 14.8 g
LIVER ([…], time 28 day): 15.5 g
A/G ([…], time 7 day): 1.3
ALP ([…], time 7 day): 1348.8 IU/L
ALT ([…], time 7 day): 46.2 IU/L
AST ([…], time 7 day): 74.8 IU/L
BUN ([…], time 7 day): 19 mg/dL
CRE ([…], time 7 day): 0.2 mg/dL
Ca ([…], time 7 day): 10.6 mg/dL
Cl ([…], time 7 day): 105.8 meq/L
DBIL ([…], time 7 day): 0 mg/dL
GLC ([…], time 7 day): 168.8 mg/dL
IP ([…], time 7 day): 6.7 mg/dL
K ([…], time 7 day): 4.1 meq/L
LDH ([…], time 7 day): 205.6 IU/L
Na ([…], time 7 day): 141.6 meq/L
PL ([…], time 7 day): 169.8 mg/dL
RALB ([…], time 7 day): 3.1 g/dL
TBIL ([…], time 7 day): 0.012 mg/dL
TC ([…], time 7 day): 86.4 mg/dL
TG ([…], time 7 day): 120.8 mg/dL
TP ([…], time 7 day): 5.5 g/dL
gamma-GTP ([…], time 7 day): 1.4 IU/L
A/G ([…], time 14 day): 1.2
ALP ([…], time 14 day): 1394 IU/L
ALT ([…], time 14 day): 43.6 IU/L
AST ([…], time 14 day): 69.2 IU/L
BUN ([…], time 14 day): 17.4 mg/dL
CRE ([…], time 14 day): 0.2 mg/dL
Ca ([…], time 14 day): 10.6 mg/dL
Cl ([…], time 14 day): 104.6 meq/L
DBIL ([…], time 14 day): 0 mg/dL
GLC ([…], time 14 day): 179.4 mg/dL
IP ([…], time 14 day): 6.7 mg/dL
K ([…], time 14 day): 3.7 meq/L
LDH ([…], time 14 day): 123.6 IU/L
Na ([…], time 14 day): 141.4 meq/L
PL ([…], time 14 day): 171 mg/dL
RALB ([…], time 14 day): 3.2 g/dL
TBIL ([…], time 14 day): 0.006 mg/dL
TC ([…], time 14 day): 83.2 mg/dL
TG ([…], time 14 day): 190 mg/dL
TP ([…], time 14 day): 5.8 g/dL
gamma-GTP ([…], time 14 day): 1 IU/L
A/G ([…], time 28 day): 1.1
ALP ([…], time 28 day): 1129.4 IU/L
ALT ([…], time 28 day): 47.6 IU/L
AST ([…], time 28 day): 69.8 IU/L
BUN ([…], time 28 day): 17.6 mg/dL
CRE ([…], time 28 day): 0.2 mg/dL
Ca ([…], time 28 day): 10.7 mg/dL
Cl ([…], time 28 day): 106 meq/L
DBIL ([…], time 28 day): 0.004 mg/dL
GLC ([…], time 28 day): 189 mg/dL
IP ([…], time 28 day): 6.4 mg/dL
K ([…], time 28 day): 4.1 meq/L
LDH ([…], time 28 day): 151.2 IU/L
Na ([…], time 28 day): 142.2 meq/L
PL ([…], time 28 day): 173.6 mg/dL
RALB ([…], time 28 day): 3.2 g/dL
TBIL ([…], time 28 day): 0.008 mg/dL
TC ([…], time 28 day): 87 mg/dL
TG ([…], time 28 day): 152.2 mg/dL
TP ([…], time 28 day): 6.2 g/dL
gamma-GTP ([…], time 28 day): 2 IU/L
